The Kd is a measure of binding affinity in units of concentration.

The values below come from paper PMC4627091 (2015).

In test [1] the test system is Spinach with GAAA tetraloop (RNA, aptamer) GGGAACACAAUAAUAAAACUUACAAACAAGAAAAAAAAGACGCGACUGAAUGAAAUGGUGAAGGACGGGUCCAGCUGCGAAAGCAGCUUGUUGAGUAGAGUGUGAGCUCCGUAACUAGUCGCGUC
Nature of the test: on-chip fluorescence titration and melting. The note with it: 125 mM KCl, 5 mM MgCl2; 40 mM HEPES, 5% DMSO; comparable to UUCG loop; immobilised RNA.

Test [2] concerns wt Spinach with anchor sequence (in solution) (RNA, aptamer) GGGAACACAAUAAUAAAACUUACAAACAAGAAAAAAAAGACGCGACUGAAUGAAAUGGUGAAGGACGGGUCCAGCUGCUUCGGCAGCUUGUUGAGUAGAGUGUGAGCUCCGUAACUAGUCGCGUC
Nature of the test: solution binding assay (off chip). The following applies: buffer and temperature not stated.

The test system of test [3] is wt Spinach without anchor sequence (in solution) (RNA, aptamer) GACGCGACUGAAUGAAAUGGUGAAGGACGGGUCCAGCUGCUUCGGCAGCUUGUUGAGUAGAGUGUGAGCUCCGUAACUAGUCGCGUC
Nature of the test: solution binding assay (off chip). The note with it: buffer and temperature not stated.

Test [4] deals with Spinach with GUGA tetraloop (RNA, aptamer) GGGAACACAAUAAUAAAACUUACAAACAAGAAAAAAAAGACGCGACUGAAUGAAAUGGUGAAGGACGGGUCCAGCUGCGUGAGCAGCUUGUUGAGUAGAGUGUGAGCUCCGUAACUAGUCGCGUC
Nature of the test: on-chip fluorescence. The note with it: 125 mM KCl, 5 mM MgCl2; loss of fluorescence attributed to misfolding; up to 43.5 μM DFHBI.

The test system of test [5] is wt Spinach (87-nt, on chip, with 5' capture tag) (RNA, aptamer) GGGAACACAAUAAUAAAACUUACAAACAAGAAAAAAAAGACGCGACUGAAUGAAAUGGUGAAGGACGGGUCCAGCUGCUUCGGCAGCUUGUUGAGUAGAGUGUGAGCUCCGUAACUAGUCGCGUC
Nature of the test: on-chip fluorescence titration (mLSI pull-down). The note with it: 125 mM KCl, 5 mM MgCl2; 40 mM HEPES, 5% DMSO; temperature of this value not stated (19-28°C series); immobilised RNA.

Test [6] has as its system Spinach U50C (RNA, aptamer) GGGAACACAAUAAUAAAACUUACAAACAAGAAAAAAAAGACGCGACUGAAUGAAAUGGUGAAGGACGGGUCCAGCUGCUUCGGCAGCCUGUUGAGUAGAGUGUGAGCUCCGUAACUAGUCGCGUC
Nature of the test: on-chip fluorescence titration (mLSI pull-down). The following applies: 125 mM KCl, 5 mM MgCl2; 40 mM HEPES, 5% DMSO; temperature of this value not stated; immobilised RNA.

Consider `CC1=N/C(=C\c2cc(F)c(O)c(F)c2)C(=O)N1C`, for which the binding result in test [1] is “yes”; in test [4], “no”. Also, the Kd is 680 nM in test [2], 530 nM in test [3], 1180 nM in test [5] and 450 nM in test [6].
